Source: US20230044787A1, “TRICYCLE DIHYDROIMIDAZOPYRIMIDONE DERIVATIVE, PREPARATION METHOD THEREOF, PHARMACEUTICAL COMPOSITION AND USE THEREOF” (priority 2019, published 2023)

Biological target: T1, Lp-PLA2 (Homo sapiens, UniProt Q13093)
T1 construct: aliquoted and thawed 40 μL of pooled human plasma was previously added; from tissue; host or cells: pooled human plasma
T1 sequence (Q13093 22-441): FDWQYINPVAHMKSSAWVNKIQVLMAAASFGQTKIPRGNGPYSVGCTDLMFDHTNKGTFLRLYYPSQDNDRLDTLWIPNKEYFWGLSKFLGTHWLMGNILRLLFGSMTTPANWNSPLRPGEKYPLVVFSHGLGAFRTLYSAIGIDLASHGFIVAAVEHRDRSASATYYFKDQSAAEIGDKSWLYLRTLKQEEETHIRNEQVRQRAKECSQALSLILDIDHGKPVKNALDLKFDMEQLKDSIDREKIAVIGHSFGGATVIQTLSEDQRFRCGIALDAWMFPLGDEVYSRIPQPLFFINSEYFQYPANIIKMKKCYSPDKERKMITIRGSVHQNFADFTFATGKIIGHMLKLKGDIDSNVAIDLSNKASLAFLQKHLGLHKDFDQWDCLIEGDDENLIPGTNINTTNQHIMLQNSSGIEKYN
Test: Lipoprotein-associated phospholipase A2 (Lp-PLA2) human plasma assay (Thio-PAF assay)
Assay type: biochemical
Conditions: Lp-PLA2 human plasma assay (Thio-PAF), pooled human plasma, 30-min pre-incubation at room temperature
Experimental: Lipoprotein-Associated Phospholipase A2 (Lp-PLA2) Human Plasma Assay
The amount of sulfhydryl groups is continuously determined by the reaction with CPM (7-diethylamino-3-(4′-maleimidophenyl)-4-methylcoumarin), and the CPM is a maleimide of which fluorescence increases after Michael addition of sulfhydryl group. This assay can detect Lp-PLA2 activity in human plasma, as determined by specific inhibition of Lp-PLA2 inhibitors.
Thio-PAF assay was performed as quenched 75 μL assay. Compound source plate was prepared for each compound by preparing 1:3 (by volume) serial dilutions in pure DMSO in a 96-well microplate. The compound on the source plate was diluted 20-fold by transferring 3 μL of the compound from the compound source plate into a 96-well microplate pre-added with 57 μL of assay buffer by Rainin multichannel pipette. The assay buffer described above consisted of 50 mM HEPES, pH 7.4, 150 mM NaCl, 1 mM CHAPS. 1 μL of the 20-fold diluted compound was transferred by Rainin multichannel pipette into a 96-well Greiner 655076 (black) microplate to which aliquoted and thawed 40 μL of pooled human plasma was previously added. The plate was shaken for 20 seconds on a microplate shaker to mix well. After a 30-min pre-incubation at room temperature, 10 μL of substrate solution was added to the 96-well Greiner 655076 (black) microplate by Rainin multichannel pipette, in which the substrate solution contained 2.5 mM 2-thio-PAF [from ethanol stock], 32 μM CPM [from DMSO stock], and 3.2 mM NEM (N-ethylmaleimide) [freshly prepared in DMSO per experiment] in assay buffer consisting of 50 mM HEPES, pH 7.4; 150 mM NaCl; 1 mM CHAPS. After 2 min, the reaction was quenched with […] of 5% trifluoroacetic acid (TFA) in water. The plate was centrifuged at 2000 rpm for 1 minute. The plate was read at ex:380/em:485 using a Biotek Synergy H1 (H1MF) microplate reader. IC50 data, curves and QC analysis were performed using GraphPad Prism 6.0 and Excel.

In order of falling IC50:
1. O=c1nc(OCc2ccccc2F)cc2n1CC13CC(CN21)C3 [Example 44, 3-((2-fluorobenzyl)oxy)-7,8-dihydro-1H,6H,9H-7,8a-methanopyrrolo[1′,2′:3,4] imidazo[1,2-c]pyrimidin-1-one]  342 nM
2. O=c1nc(OCc2ccc(Oc3ccc(F)c(C(F)(F)F)c3)nc2)cc2n1CC13CCC(CC1)N23 [Example 49, 3-((6-(4-fluoro-3-(trifluoromethyl)phenoxy)pyridin-3-yl)methoxy)-7,8-dihydro-1H,6H,9H-6,8a-ethanopyrrolo[1′,2′:3,4] imidazo[1,2-c]pyrimidin-1-one]  168 nM
3. O=c1nc(OCc2ccc(Oc3ccc(F)c(C(F)(F)F)c3)nc2)cc2n1C[C@@]13CO[C@@H](CN21)C3 [Example 32, (3R,11aS)-7-((6-(4-fluoro-3-(trifluoromethyl)phenoxy)pyridin-3-yl)methoxy)-3,4-dihydro-1H,9H,11H-3,11a-methanopyrimido[6′,1′:2,3] imidazo[5,1-c][1,4]oxazin-9-one]  164 nM
4. O=c1nc(OCc2cccc(F)c2F)cc2n1CC13CC(CN21)C3 [Example 45, 3-((2,3-difluorobenzyl)oxy)-7,8-dihydro-1H,6H,9H-7,8a-methanopyrrolo[1′,2′:3,4] imidazo[1,2-c]pyrimidin-1-one]  71.8 nM
5. Cn1cc(Oc2c(F)cc(COc3cc4n(c(=O)n3)CC35CCC(CC3)N45)cc2F)cn1 [Example 48, 3-((3,5-difluoro-4-((1-methyl-1H-pyrazol-4-yl)oxy)benzyl)oxy)-7,8-dihydro-1H,6H,9H-6,8a-ethanopyrrolo[1′,2′:3,4] imidazo[1,2-c]pyrimidin-1-one]  62.8 nM
6. O=c1nc(OCc2cc(F)c(F)c(F)c2)cc2n1C[C@@]13CO[C@@H](CN21)C3 [Example 35, (3R,11aS)-7-((3,4,5-trifluorobenzyl)oxy)-3,4-dihydro-1H,9H,11H-3,11a-methanopyrimido[6′,1′:2,3] imidazo[5,1-c][1,4]oxazin-9-one]  38.8 nM
7. O=c1nc(OCc2cc(F)c(Oc3ccnc(C(F)(F)F)c3)c(F)c2)cc2n1CC13CCC(CC1)N23 [Example 46, 3-((3,5-difluoro-4-((2-(trifluoromethyl)pyridin-4-yl)oxy)benzyl)oxy)-7,8-dihydro-1H,6H,9H-6,8a-ethanopyrrolo[1′,2′:3,4] imidazo[1,2-c]pyrimidin-1-one]  15.3 nM
8. O=c1nc(OCc2cc(F)c(Oc3cnc(C(F)(F)F)nc3)c(F)c2)cc2n1CC13CC(CN21)C3 [Example 39, 3-((3,5-difluoro-4-((2-(trifluoromethyl)pyrimidin-5-yl)oxy)benzyl)oxy)-7,8-dihydro-1H,6H,9H-7,8a-methanopyrrolo[1′,2′:3,4] imidazo[1,2-c]pyrimidin-1-one]  13.8 nM
9. O=c1nc(OCc2ccc(F)c(F)c2)cc2n1C[C@]13CO[C@H](CN21)C3 [Example 25, (3S,11aR)-7-((3,4-trifluorobenzyl)oxy)-3,4-dihydro-1H,9H,11H-3,11a-methanopyrimido[6′,1′:2,3] imidazo[5,1-c][1,4]oxazin-9-one]  10.4 nM
10. O=c1nc(OCc2cc(F)c(Oc3ccnc(C(F)(F)F)c3)c(F)c2)cc2n1CC13CC(CN21)C3 [Example 36, 3-((3,5-difluoro-4-((2-(trifluoromethyl)pyridin-4-yl)oxy)benzyl)oxy)-7,8-dihydro-1H,6H,9H-7,8a-methanopyrrolo[1′,2′:3,4] imidazo[1,2-c]pyrimidin-1-one]  9.6 nM
11. O=c1nc(OCc2cc(F)c(Oc3cnc(C(F)(F)F)nc3)c(F)c2)cc2n1CC13CCC(CC1)N23 [Example 47, 3-((3,5-difluoro-4-((2-(trifluoromethyl)pyrimidin-5-yl)oxy)benzyl)oxy)-7,8-dihydro-1H,6H,9H-6,8a-ethanopyrrolo[1′,2′:3,4] imidazo[1,2-c]pyrimidin-1-one]  9.4 nM
12. O=c1nc(OCc2cc(F)c(Oc3ccnc(Cl)c3)c(F)c2)cc2n1CC13CC(CN21)C3 [Example 38, 3-((4-((2-chloropyridin-4-yl)oxy)-3,5-difluorobenzyl)oxy)-7,8-dihydro-1H,6H,9H-7,8a-methanopyrrolo[1′,2′:3,4] imidazo[1,2-c]pyrimidin-1-one]  8.5 nM
13. O=c1nc(OCc2cc(F)c(Oc3ccnc(Cl)c3)c(F)c2)cc2n1C[C@@]13CO[C@@H](CN21)C3 [Example 28, (3R,11aS)-7-((4-((2-chloropyridin-4-yl)oxy)-3,5-difluorobenzyl)oxy)-3,4-dihydro-1H,9H,11H-3,11a-methanopyrimido[6′,1′:2,3] imidazo[5,1-c][1,4]oxazin-9-one]  7.3 nM
14. N#Cc1cc(Oc2ccc(COc3cc4n(c(=O)n3)C[C@@]35CO[C@@H](CN43)C5)cc2F)cc(C(F)(F)F)c1 [Example 31]  7.1 nM
15. O=c1nc(OCc2cc(F)c(Oc3ccc(C(F)(F)F)nc3)c(F)c2)cc2n1C[C@@]13CO[C@@H](CN21)C3 [Example 30, (3R,11aS)-7-((3,5-difluoro-4-((6-(trifluoromethyl)pyridin-3-yl)oxy)benzyl)oxy)-3,4-dihydro-1H,9H,11H-3,11a-methanopyrimido[6′,1′:2,3] imidazo[5,1-c][1,4]oxazin-9-one]  6.8 nM
16. O=c1nc(OCc2cc(F)c(Oc3cncc(C(F)(F)F)c3)c(F)c2)cc2n1CC13CC(CN21)C3 [Example 40]  6.4 nM
17. N#Cc1cc(COc2cc3n(c(=O)n2)C[C@@]24CO[C@@H](CN32)C4)ccc1Oc1cccc(C(F)(F)F)c1 [Example 33]  6 nM
18. O=c1nc(OCc2cc(F)c(Oc3ccnc(OC(F)(F)F)c3)c(F)c2)cc2n1CC13CC(CN21)C3 [Example 37, 3-((3,5-difluoro-4-((2-(trifluoromethoxy)pyridin-4-yl)oxy)benzyl)oxy)-7,8-dihydro-1H,6H,9H-7,8a-methanopyrrolo[1′,2′:3,4] imidazo[1,2-c]pyrimidin-1-one]  5.8 nM
19. O=c1nc(OCc2cc(F)c(Oc3ccnc(C(F)(F)F)c3)c(F)c2)cc2n1C[C@@]13CO[C@@H](CN21)C3 [Example 26, (3R,11aS)-7-((3,5-difluoro-4-((2-(trifluoromethyl)pyridin-4-yl)oxy)benzyl)oxy)-3,4-dihydro-1H,9H,11H-3,11a-methanopyrimido[6′,1′:2,3] imidazo[5,1-c][1,4]oxazin-9-one]  5.5 nM
20. N#Cc1cc(COc2cc3n(c(=O)n2)CC24CC(CN32)C4)ccc1Oc1cccc(C(F)(F)F)c1 [Example 42]  4.9 nM
21. N#Cc1cc(COc2cc3n(c(=O)n2)CC24CC(CN32)C4)ccc1Oc1ccnc(C(F)(F)F)c1 [Example 43]  4 nM
22. N#Cc1cc(COc2cc3n(c(=O)n2)CC24CC(CN32)C4)ccc1Oc1ccc(Cl)c(C(F)(F)F)c1 [Example 41]  3.9 nM
23. N#Cc1cc(COc2cc3n(c(=O)n2)C[C@@]24CO[C@@H](CN32)C4)ccc1Oc1ccc(C(F)(F)F)cc1 [Example 34, 5-((((3R,11aS)-9-oxo-3,4-dihydro-1H,9H,11H-3,11a-methanopyrimido[6′,1′:2,3]imidazo[5,1-c][1,4]oxazin-7-yl)oxy)methyl)-2-(4-(trifluoromethyl)phenoxy) benzonitrile]  3.6 nM
24. O=c1nc(OCc2cc(F)c(Oc3cncc(C(F)(F)F)c3)c(F)c2)cc2n1C[C@@]13CO[C@@H](CN21)C3 [Example 29, (3R,11aS)-7-((3,5-difluoro-4-((5-(trifluoromethyl)pyridin-3-yl)oxy)benzyl)oxy)-3,4-dihydro-1H,9H,11H-3,11a-methanopyrimido[6′,1′:2,3] imidazo[5,1-c][1,4]oxazin-9-one]  3.4 nM
25. N#Cc1cc(COc2cc3n(c(=O)n2)CC24CCC(CC2)N34)ccc1Oc1ccc(Cl)c(C(F)(F)F)c1 [Example 50, 5-(((1-oxo-7,8-dihydro-1H,6H,9H-6,8a-ethanopyrrolo[1′,2′:3,4]imidazo[1,2-c]pyrimidin-3-yl)oxy)methyl)-2-(4-chloro-3-(trifluoromethyl)phenoxy) benzonitrile]  2.7 nM
26. O=c1nc(OCc2cc(F)c(Oc3ccc(Cl)c(C(F)(F)F)c3)c(F)c2)cc2n1C[C@@]13CO[C@@H](CN21)C3 [Example 27, (3R,11aS)-7-((4-(4-chloro-3-(trifluoromethyl)phenoxy)-3,5-difluorobenzyl)oxy)-3,4-dihydro-1H,9H,11H-3,11a-methanopyrimido[6′,1′:2,3] imidazo[5,1-c][1,4]oxazin-9-one]  2.5 nM
